# Results as given in US9949948B2, “Artemisinin and its derivatives for use in the treatment of trauma haemorrhage and associated conditions” (Queen Mary University of London, priority 2011, dated 2018).
# Experiments:
# Format in all cases: in vivo, Wistar rats
# [1] = tested on: rats subjected to regional myocardial ischaemia and reperfusion; assay: Regional myocardial ischaemia and reperfusion, vehicle 5% sodium bicarbonate; conditions: for infarct size (percentage of the AAR): control 57.6±2.1%; for area at risk: compared to vehicle treated rats
# Experimental: (§1) Rats were anaesthetised with thiopentone sodium (Intraval® 120 mg/kg i.p.). Anaesthesia was maintained by supplementary injections of thiopentone sodium as required. The trachea was cannulated and the animals were ventilated with a Harvard ventilator (inspiratory oxygen concentration: 30%; 70 strokes/min, tidal volume: 8-10 ml/kg). Body temperature was maintained at 37±1° C. with the aid of a rectal probe thermometer attached to a homeothermic blanket unit (Harvard Apparatus Ltd., Edenbridge, Kent, U.K.). […] The right jugular vein was then cannulated for the administration of drugs and saline. A para-sternal thoracotomy was then performed, using an Electrosurgery device to cauterize the intercostals arteries before cutting through three ribs. The chest was retracted and pericardium dissected from the heart. The left anterior descending (LAD) coronary artery was isolated and a snare occluder was placed around the LAD. The retractor was then removed and the animal was allowed to stabilise for 15 min.
# (§2) The occluder was tightened at time 0. After 25 min of LAD-occlusion, the occluder was released to allow reperfusion of the previously ischemic myocardium (2 h). Haemodynamic parameters were continuously monitored. Baseline readings were taken prior to treatment, and, myocardial ischaemia reperfusion (IR) injury. The pressure rate index (PRI), a relative indicator of myocardial oxygen consumption was calculated as a product of the MAP (mmHg) and HR (beats/minute-bpm) and expressed in mm Hg bpm×10^−3.
# (§3) At the end of the 2 h reperfusion period, the LAD was re-occluded and 1 ml of Evans Blue dye (2% w/v) was injected into the animal, via the jugular vein. The Evans Blue dye stains the tissue it can circulate through, therefore the non-perfused vascular (occluded) tissue remains un-coloured. Each animal was killed with an over-dose of anaesthetic, the heart excised, and excess dye washed off. […] The ischaemic and non-ischaemic tissue was weighed, and the AAR expressed as a percentage of the left ventricle. The tissue from the AAR was cut into small pieces and incubated with p-nitroblue tetrazolium (NBT, 0.5 mg/ml) for 30 min at 37° C. NBT is a reducing agent that reacts with dehydrogenases present in viable (non-infarcted) tissue to produce a dark blue formazan. Infarcted tissue (non-viable) will not have dehydrogenase activity and will therefore fail to stain. The stained tissue was separated from the infarcted tissue, weighed, and the infarct size expressed as a percentage of the AAR.
# Sham-operated rats were subjected to surgical procedure without myocardial ischaemia and reperfusion.
# burn injury rats = assay: Organ injury and dysfunction induced by burn injury in the rat; conditions: 3 mg/kg i.v. 30 min prior to and 30 min after burn injury
# Experimental: Twenty-two male Wistar rats (Harlan, Udine, Italy) weighing 300 to 350 g were anaesthetised with sodium pentobarbital (Eutasil™, 60 mg/kg i.p.; Sanofi Veterinária, Algés, Portugal), which was supplemented as required. Anaesthetised rats were shaved (dorsum and abdomen) and placed onto a thermostatically controlled heating mat (Harvard Apparatus Ltd, Kent, U.K.) and body temperature maintained at 37±1° C. by means of a rectal probe attached to a homeothermic blanket. A tracheotomy was performed to maintain airway patency and to facilitate spontaneous respiration. Thirty minutes prior to burn injury, rats were treated with vehicle or drug, as described in section 3.2. To induce burn injury, a 60% third degree skin burn was induced by immersing dorsal shaved skin in 99° C. water for 10 s using a synthetic foam template. The rats were then dried and placed over the heating mat. Rats were sacrificed at 6 hours after burn injury by overdose of the anaesthetic and serum samples obtained for analysis of organ injury and dysfunction.
# Sham-operated rats underwent identical surgical procedures but without burn injury (immersed in room temperature water).
# [2] = tested on: rats subjected to regional myocardial ischaemia and reperfusion; assay: Regional myocardial ischaemia and reperfusion, artesunate dissolved in 10% DMSO; conditions: for Infarct size reduction: vs control; for infarct size (percentage of the AAR): control 59.8±3.2%, P<0.05
# Experimental: as §1, with “anesthetised” for “anaesthetised”, “Anesthesia” for “Anaesthesia”, “37+1°” for “37±1°”, “Kent.” for “Kent,”
# as §2, with “Hemodynamic” for “Haemodynamic”, “IRI.” for “ischaemia reperfusion (IR) injury.”, “bpm×10-3.” for “bpm×10^−3.”
# as §3
# [3] = bolus 0.3, 1 or 10 mg/kg upon reperfusion, P>0.05 vs Control
# [4] = bolus 10, 3, 1 mg/kg in 10% DMSO upon reperfusion, P>0.05 vs Control
smiles,measurement,setting,value
C[C@H]1[C@H](OC(=O)CCC(=O)O)O[C@@H]2O[C@@]3(C)CC[C@H]4[C@H](C)CC[C@@H]1[C@@]24OO3 [artesunate],infarct size (percentage of the AAR),[1]; 0.3 mg/kg i.v. bolus upon reperfusion,44.0±2.61%
same,area at risk,[1]; 0.3 mg/kg,no significant effect
same,Infarct size reduction,"[1]; 1 mg/kg i.v. upon reperfusion, vs control",40%
same,infarct size (percentage of the AAR),"[1]; 1 mg/kg i.v. upon reperfusion, P<0.05",42.6±1.1%
same,area at risk,[1]; 1 mg/kg,no significant effect
same,infarct size,"[1]; 10 mg/kg i.v. upon reperfusion, P>0.05",no significant effect
same,area at risk,[1]; 10 mg/kg,no significant effect
same,fall in mean arterial blood pressure caused by myocardial ischaemia and reperfusion,[1]; [3],did not attenuate
same,heart rate,[1]; [3],did not have a significant effect
same,rise in serum creatinine,"burn injury rats; 6 h after burn, P<0.05",significantly attenuated
same,rise in serum urea,"burn injury rats; 6 h after burn, P<0.05",significantly attenuated
same,rise in serum ALT,burn injury rats; P>0.05,no significant effect
same,rise in serum AST,burn injury rats; P>0.05,no significant effect
same,Infarct size reduction,[2]; 1 mg/kg i.v. upon reperfusion,12%
same,infarct size (percentage of the AAR),[2]; 1 mg/kg i.v. upon reperfusion,48.0±3.5%
same,Infarct size reduction,[2]; 3 mg/kg i.v. upon reperfusion,13%
same,infarct size (percentage of the AAR),[2]; 3 mg/kg i.v. upon reperfusion,46.9±2.3%
same,infarct size (percentage of the AAR),"[2]; 10 mg/kg i.v. bolus upon reperfusion, 25 min ischaemia, 2 h reperfusion",42.8±1.7%
same,Infarct size reduction,[2]; 10 mg/kg i.v. upon reperfusion,28%
same,fall in mean arterial blood pressure caused by myocardial ischaemia and reperfusion,[2]; [4],did not attenuate
same,heart rate,[2]; [4],did not have a significant effect
